Experiments:
[1] = oral, cited from earlier work
[2] = PK study in rats, cassette dosing of deuterated and non-deuterated analog; assay type: in vivo; conditions: rat; 5 mg/kg; oral gavage or via catheter; % change vs. non-deuterated material
Method: (§1) The key PK parameters (presented as a % change vs. non-deuterated materials) are presented in Table 3 to include half-life (T1/2), area under the curve (AUC), bioavailability (F) and blood-to-plasma ration (BPR). Pharmacokinetics of the deuterated tryptamines was studied in rats. In a typical experiment, run as a cassette dosing, two groups of 5 Wistar female rats (200-250 g) with surgically inserted jugular vein catheter (Charles River, Andover, MA) were fasted for 12 h and then administered 5 mg/kg of the deuterated and 5 mg/kg of the related non-deuterated analog, by oral gavage or via a catheter for each group. At time points 0, 15, 30, 60 min, and 2, 4, 8, and 24 h, the resulting plasma was analyzed for the parent molecule using LC/MS spectroscopy. Two separate groups of 5 animals were used for determining blood-to-plasma ratio (BPR). Each group was sacrificed at time points 15 and 30 min, respectively, and the concentration of the parent drug was determined in the brain and plasma by LC/MS spectroscopy.

[3] = BPR: parent drug in brain and plasma of rats; assay type: in vivo; conditions: rat, % change vs. non-deuterated material
Method: as §1

hrMAO-A = target: T1, hrMAO-A (Homo sapiens, UniProt P21397); test: Metabolic stability in the presence of hrMAO-A; assay type: in vitro ADME; conditions: MAO-A; values in square brackets are within 10% difference (assay's accuracy), no deuteration effect
T1 construct: purchased XenoTech Lot #8213001
T1 sequence (P21397 1-527): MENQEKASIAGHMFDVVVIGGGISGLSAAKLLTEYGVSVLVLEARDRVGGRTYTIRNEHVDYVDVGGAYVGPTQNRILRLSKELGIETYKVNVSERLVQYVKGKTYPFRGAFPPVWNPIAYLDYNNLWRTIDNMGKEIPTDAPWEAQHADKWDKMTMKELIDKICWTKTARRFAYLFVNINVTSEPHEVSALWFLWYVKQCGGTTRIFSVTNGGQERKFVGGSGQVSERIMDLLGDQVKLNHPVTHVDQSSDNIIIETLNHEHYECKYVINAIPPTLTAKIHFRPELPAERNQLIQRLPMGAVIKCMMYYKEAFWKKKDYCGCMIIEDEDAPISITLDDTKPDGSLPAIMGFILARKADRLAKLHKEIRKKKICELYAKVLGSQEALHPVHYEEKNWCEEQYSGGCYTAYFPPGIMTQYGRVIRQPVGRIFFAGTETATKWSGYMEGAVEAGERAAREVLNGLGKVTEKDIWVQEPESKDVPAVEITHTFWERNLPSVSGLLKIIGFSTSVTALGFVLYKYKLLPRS
Method: The reaction mixture was prepared as described below. The co-dosed TAs were added into the reaction mixture at a final concentration of 1 microM each. The positive control, kynuramine (25 microM), was run simultaneously with the TAs in a separate reaction. The reaction mixture (without TAs or kynuramine) was equilibrated in a shaking water bath at 37° C. for 5 minutes. The reaction was initiated by the addition of the TAs or kynuramine, and the mixture was incubated in a shaking water bath at 37° C. Aliquots (100 microL) of the TA reaction mixture were withdrawn at 0, 5, 10, 20, 30, 60, and 120 minutes. Aliquots (100 microL) of the positive control reaction mixture were withdrawn at 0 and 30 minutes. TA and kynuramine samples were immediately combined with 100 microL of ice-cold 100% MeCN containing 0.1% formic acid and IS to terminate the reaction. The samples were then mixed and centrifuged to precipitate proteins. All TA samples were assayed by LC-HRAMS. The PARR (analyte to IS) at each time point was compared to the PARR at time 0 to determine the percent remaining at each time point. Reaction composition: hrMAO 0.02 mg/mL; Potassium Phosphate, pH 7.4 100 mM; Magnesium Chloride 5 mM; Test Articles (each) 1 microM.

rat liver microsomes = test: Metabolic stability in rat liver microsomes (RLM)

Row | Structure (SMILES) | very strong psychedelic doses [1] [µg] | orally active dose ([1]; doses as low as) [µg] | Deuterium Kinetic Isotope Effect (% change), AUC [2] [%] | Deuterium Kinetic Isotope Effect (% change), T1/2 [2] [%] | Deuterium Kinetic Isotope Effect (% change), BPR, 15 min [3] [%] | Deuterium Kinetic Isotope Effect (% change), BPR, 30 min [3] [%] | MAO, % (half-life as % vs. the related nondeuterated compound) (hrMAO-A) [%] | RLM, % (half-life as % vs. the related nondeuterated compound) (rat liver microsomes; RLM, values in square brackets are within 10% difference (assay's accuracy), no deuteration effect) [%] | collective kinetic deuterium isotope effect (reaction rate decrease for deuterated vs. non-deuterated molecule) (rat liver microsomes; rat liver microsomes, 0 to 60 min, disappearance of parent peak)
1 | COc1cc(CCNCc2ccccc2OC)c(OC)cc1Cl [2C—C—NBOMe, 2-(4-Chloro-2,5-dimethoxyphenyl)-N-[(2-methoxyphenyl)methyl]ethan-1-amine] | 500 to 700 | ≥ 25 | – | – | – | – | – | – | –
2 | [2H]C([2H])(Cc1c[nH]c2ccc(OC)cc12)N(C)C [5-MeO-DMT-α,α-d2] | – | – | 60 | 30 | 120 | 180 | 227 | 185 | 150-200%
3 | [2H]C([2H])(Cc1c[nH]c2cccc(O)c12)N(C)C [PI-α,α-d2] | – | – | 75 | 50 | 100 | 150 | – | – | –

— patent publication US12240813B2, “Deuterated tryptamine derivatives and methods of use” (priority 2020, dated 2025)
